Assay results reported in a melting point compilation (Tetko et al.; mined from patent text by program, amines drawn as free bases though some values may be those of a salt).

melting point	SMILES
288 to 293 °C	O=c1[nH]c2cc(Br)c3c(c2[nH]c1=O)CN(CCCc1ccccc1)CC3
177 to 179 °C	COC(=O)c1ccc(CC#N)cc1S(=O)(=O)NC(=O)Nc1nc(OC)cc(OC)n1
256 °C	COc1cc2nc(C(=O)Nc3cc(C)cc(C)n3)[nH]c2cc1OC
212 to 214 °C	CCc1nc2c(cnn2CC)c(NC2CCOCC2)c1CNC(=O)c1cc(C)cc(C(=O)NCc2ccc(Cl)c(Br)c2)c1
88 to 93 °C	COc1cc(/C=C/c2cc(/C=C/c3ccc4cc[nH]c4c3)n[nH]2)cc(OCc2ccccn2)c1
196 to 197 °C	O=C(CCl)Nc1ccc(OCc2nc3ccccc3s2)cc1
166 to 167 °C	O=C(CCC1CCCC1)Nc1ccc(NC(=O)CCC2CCCC2)c2c1C(=O)c1ccccc1C2=O
211 to 213 °C	NC(=O)c1nnn(Cc2ccccc2Br)c1N
80 °C	CC(C)N(C)C(=O)COc1cc(-c2ccccc2)nc2ccccc12
266 to 268 °C	CCCC(=O)c1cnc2c(OC)cccc2c1Nc1ccc(O)c(F)c1
217 to 224 °C	CNCCCNc1ccc2c(NC(=O)CC34CC5CC(CC(C5)C3)C4)c(C)ccc2n1
120 to 121 °C	O=Cc1ccc(OCCCN2C(=O)c3ccccc3C2=O)cc1
200 °C	O=c1[nH]c2ccc(CCN3CCN(c4cccc5c4CCCC5)CC3)cc2o1
200 to 202 °C	COc1ccccc1C(=O)c1c(SC)nn(-c2c(Cl)cc(Cl)cc2Cl)c1N
136 to 137 °C	CC(C(=O)O)(c1ccccc1)c1ccc(O)cc1 (configuration not stated)
219 to 220 °C	O=c1cc(C(F)(F)F)n(-c2c([N+](=O)[O-])cc([N+](=O)[O-])cc2C(F)(F)F)c(=O)[nH]1
152 to 154 °C	NS(=O)(=O)c1ccc(Nc2nc(OCC3CCCCC3)c3[nH]cnc3n2)cc1
87 °C	CCCCCCCCC#CCC#CCC#CCCCC(=O)NCC(O)CO (configuration not stated)
179 to 181 °C	CCCC=CCC(CC(=O)Nc1cc(Cc2n[nH]c(=O)c3ccccc23)ccc1F)C(=O)O (configuration not stated)
245 to 246 °C	O=C(Nc1ccc(Cl)cc1F)c1cc(-c2ccc(F)cc2F)ccc1O
73 to 74 °C	Cc1ccccc1OCC(O)CNCCCOc1ccccc1 (configuration not stated)
233 to 234 °C	CCOC(=O)c1cnn(-c2ccc(O)c(C#N)c2)c1
54 to 55 °C	O=C1c2ccccc2CCn2cccc21

melting point	SMILES
144 to 147 °C	Cc1cc(OC/C=C(/c2ccc(Cl)cc2)c2ccc(C#CC(C)(C)C)cc2)ccc1OCC(=O)O
87 to 91 °C	CC(C)OC(=O)C(O)C(CC1CCCCC1)NC(=O)C(Cc1c[nH]cn1)NC(=O)C(CCOc1ccc(F)cc1)Cc1cccc2ccccc12 (mixture of isomers)
> 230 °C	CSc1nn2c(N)cc(Cl)nc2c1S(=O)(=O)c1ccccc1
191 °C	CN1C2CCCC1CN(c1ccc(C#Cc3ccc(N)cc3)cc1)C2
194 to 199 °C	O=C(O)C1CCC(c2ccc(OCc3ccc4ccccc4n3)cc2)(c2ccc(OCc3ccc4ccccc4n3)cc2)CC1
179 °C	Clc1ccc(C#Cc2ccc(Br)cc2)cc1
> 270 °C	CC(C)(C)N1CCN(c2cc3c(cc2F)c(=O)c(C(=O)O)cn3C(C)(C)C)CC1
129 to 130 °C	CCCc1oc(-c2ccccc2)nc1COc1ccc(COc2ccccc2CC(=O)O)cc1
111 to 113 °C	COC(=O)C(C(=O)OC)C(Cc1c(N)cccc1C(F)(F)F)c1ccc(OC)cc1 (configuration not stated)
182 °C	CCOC(=O)NC(C)Cn1cc(-c2ccccc2)c2ccccc2c1=O (configuration not stated)
126 to 127 °C	Cc1oc(-c2ccccc2)nc1COc1ccc(OCc2ncccc2CC(=O)O)cc1
165 to 166 °C	COc1cc(C(=O)N2Cc3ccc(C(=O)NCc4cccc(C)c4)n3Cc3ccccc32)ccc1-c1ccccc1C
150 to 152 °C	CCn1nc2ccc(Cl)nn2c1=O
185 °C	COc1ccc(C(=O)Nc2ccc(OCc3ccccc3)cc2N)cc1C12CC3CC(CC(C3)C1)C2
150 °C	COc1ccc(S(=O)(=O)N(CC(N)=O)c2ccc(Cl)cc2Cc2ccccc2Cl)cc1
> 320 °C	O=c1c2c(Cc3ccccc3)n[nH]c2c2cccnc2n1-c1ccc(O)cc1
180 °C	CCCCCC1(c2ccc(C)cc2)OCc2c(O)c(C)nc(Cl)c21 (configuration not stated)
95 to 97 °C	CCCCC(Cc1ccc(OCCNC(=O)c2ccc(-c3cccc(CN(C)C)c3)cc2)cc1)C(=O)O (configuration not stated)
155 to 156 °C	Cc1oc(-c2ccccc2)nc1COc1ccc(CON2C(=O)c3ccccc3C2=O)cc1
110 to 120 °C	COC(=O)C1CC2c3cccc4c3C(CN4)CC2N(C)C1 (configuration not stated)
252 to 255 °C	Cc1cc(CN2CCN(c3ccc(C(=O)NC4CC4)cc3Cl)CC2)cc2c1OC(C)C(=O)N2 (configuration not stated)
178 to 180 °C	CC(=O)OCC1OC(SC(c2ccccc2)(c2ccccc2)c2ccccc2)C(OC(C)=O)C(OC(C)=O)C1OC(C)=O (configuration not stated)
69.4 °C	CCCCNC(=O)c1ccc(S(=O)(=O)NCCCC)o1

melting point	SMILES
230 °C	Cc1cc(-c2cc(C(F)(F)F)n3ncc(C(=O)Nc4cccc(S(=O)(=O)N5CCCC5)c4)c3n2)ccc1Cl
120 to 121 °C	COc1cc2c(c(OC(C)=O)c1)C1CCC3(C)C(OC(C)=O)CCC3C1CC2 (configuration not stated)
179 °C	CCc1cccc(C)c1CNc1cc(CNC)cn2nc(C)nc12
112 to 118 °C	Cc1cc(C(=O)O)ccc1OCCNC(=O)C1Cc2ccccc2N1S(=O)(=O)c1ccc(-c2ccc(F)cc2)cc1 (configuration not stated)
82 to 84 °C	CCOC(=O)c1c(O)nc(SCC)n1C(C)C
187 to 188 °C	CCCc1ccnc2c(=O)[nH]c(-c3cc(S(=O)(=O)N4CCN(CCO)CC4)ccc3OCC)nc12
208 to 210 °C	COCCS(=O)(=O)c1ccc(CCN2CC=C(c3c[nH]c(-c4ccc(F)c(Cl)c4)c3-c3ccncc3)CC2)cc1
145 °C	CNCCOc1ccc(C=CC(=O)N2CCc3c([nH]c4ccccc34)C2c2ccc3c(c2)CCO3)cc1 (configuration not stated)
253 °C	CCOP(=O)(OCC)C1Cc2cc(C(F)(F)F)cc3[nH]c(=O)c(=O)n(c23)C1 (configuration not stated)
166 to 168 °C	COc1cc2c(Nc3ccc(Cl)cc3F)c(C#N)cnc2c(OC)c1OC
113 to 114 °C	CCOC(Nc1ccccc1)(OCC)c1ccnc(C(=O)c2ccc(Cl)c(Cl)c2)c1
95 to 97 °C	CCCC(=O)Nc1ncc(C(C)C)s1
92 to 96 °C	O=C(CCOc1cccc(CN2CCCCC2)c1)Nc1cccnc1
93 to 94 °C	O=C(Cc1ccccc1)N1CCN(c2ccc(Cl)cc2)CC1
105 °C	CCCCc1cccc(=O)n1Cc1ccc(-c2ccccc2-c2nnn[nH]2)cc1
211 to 213 °C	O=[N+]([O-])c1ccc(-c2nc(-c3ccccn3)no2)cc1
121 to 122 °C	CCNC(=O)OCc1cnc(C)c(OC(=O)NCC)c1
158 to 160 °C	Cc1cccc(N2CCN(CCc3ccc(-c4cccc(N)n4)cc3)CC2)c1
135 to 136 °C	COc1ccc(-c2nn(CC3CC3)c(=O)cc2-c2ccc(OC)c(F)c2)cc1
211 to 213 °C	CCOC(=O)c1cn(C2CC2)c2nc(N3C[C@@H](CNC(C)=O)[C@H](F)C3)c(F)cc2c1=O (relative stereo)
167 to 169 °C	CC(=O)Nc1ccc(S(=O)(=O)N(Cc2cc(C(C)(C)C)c(O)c(C(C)(C)C)c2)c2cccnc2)cc1
124 to 126 °C	COC(=O)C(=O)NC1CC(C)(C)N(OC2CCCCC2)C(C)(C)C1
207 to 210 °C	NC1Cc2ccccc2N(C(=O)c2ccc(NC(=O)c3cc(Cl)cc(Cl)c3)cc2)C1 (configuration not stated)

melting point	SMILES
215 °C	CCC1(c2ccc(Cl)cc2)OCc2c1cnc(C)c2O (configuration not stated)
148 °C	O=C(O)Cc1cc(C(=O)c2ccccc2Cl)ccc1O
141 to 142 °C	NC(=O)CCSC(SCCC(=O)O)c1cccc(SCc2ccc3ccc(Cl)cc3n2)c1 (configuration not stated)
229 to 232 °C	O=C(O)C1CCc2c(oc3ccc([N+](=O)[O-])cc23)C1 (configuration not stated)
108 to 111 °C	COc1cc(C(=O)N2CCC(CCN3CCC(C(=O)c4nc5ccccc5[nH]4)CC3)(c3ccccc3)C2)cc(OC)c1OC (configuration not stated)
198 to 199 °C	COc1ccc(C2=NN(C3CCN(S(=O)(=O)c4ccc(C)cc4)CC3)C(=O)[C@H]3CC=CC[C@@H]23)cc1Cl (relative stereo)
118 to 120 °C	CCNC(=O)c1cccc([N+](=O)[O-])c1
139 to 140 °C	Cc1cc(-c2nc3cccnn3c2-c2ccnc(NC(=O)NCC(C)O)c2)ccc1F (configuration not stated)
143 °C	COc1cc(-c2nc3ccc(OCCN4CCCC4)cc3n2Cc2ccccc2C(F)(F)F)cc(OC)c1OC
180 to 182 °C	COC(=O)c1ccc(N=C(Nc2ccc(C(=O)OC)cc2)c2ccccc2)cc1
238 to 241 °C	CCNC(=O)Nc1nc2cc(-c3c(C)noc3C)cc(C(=O)NCC)n2n1
192 °C	CCCCCCCCCCCCCCCCCCNC(=O)C(=O)Nc1ccc(O)cc1
194 to 197 °C	Oc1nc(-c2ccccc2)cs1
295 °C	CC(C)(C)NCP(=O)(O)O
166 to 167 °C	COc1ccc2c(c1)Sc1cc(OC)ccc1N2C
130 °C	CC(=O)OCSc1c(F)cc(-c2c(-c3ccccc3)noc2C)cc1F
57 °C	O=S(=O)(Cl)c1c(Cl)cc(F)cc1Cl
136 to 138 °C	CCOC(=O)C1(CNC(=O)C=CC(Cc2ccc3ccccc3c2)N(C)C(=O)c2cc(C(F)(F)F)cc(C(F)(F)F)c2)CCCC1 (configuration not stated)
149 °C	CCOC(=O)n1cc(C#N)c(-c2cccc(Cl)c2F)c1
105 to 107 °C	N#CCS(=O)(=O)C=C1N(CCCN2CCCCC2)CCN1CCCN1CCCCC1
240 to 247 °C	O=C1NCC(c2ccccc2)SCC1N1C(=O)c2ccccc2C1=O (configuration not stated)
53 to 54 °C	CN(C)CCCCCCOc1ccc(CC(=O)c2ccccc2)cc1

SMILES	melting point
COC(=O)CCN(CC1CC2c3cccc4[nH]cc(c34)CC2N(C)C1)C(=O)NC(C)C (configuration not stated)	112 to 115 °C
